Results on three molecules are retold here after US5462869A, “Human endothelin converting enzyme isolated from blood or placenta by hydrated density” (Nisshin Flour Milling Co., Ltd., priority 1991, dated 1995).

SMILES strings stand for the structures. Square brackets hold non-standard residues; d marks the D form. Peptide text beside a SMILES is read from it. * marks the point of attachment. Sta = CC(C)C[C@H](N)[C@@H](O)CC(=O)O; Isovaleryl = CC(C)CC(=O)*

What all share (type): biochemical, human
Common to all, as to conditions: 37° C. 30 minutes, pH 7.0, untreated enzyme as 100

Experiment [1] deals with endothelin converting enzyme III. The experiment is described as follows: Effect of inhibitors on activity of converting big endothelin-1 to endothelin-1, enzyme III. As to the method: (§1) 10 μl of a 100 nmol/ml big endothelin-1 solution is added to 1 ml of an enzyme solution (10 mM trishydrochloric acid-0.15M sodium chloride buffer; pH 7.0), and the enzymatic reaction is carried out at 37° C. for 3 hours. After completion of the reaction, 10 μl of a 0.1M EDTA solution is added thereto to discontinue the reaction. Thereafter, the resultant endothelin-1 is assayed according to the sandwich-EIA method. An enzymatic activity of converting 1 pmol of big endothelin-1 to endothelin-1 per hour under the above-described reaction conditions is termed 1 U (unit).
(§2) A sample and a predetermined concentration of endothelin standard solution are respectively applied to a 96-hole microplate on which ani-endothelin monoclonal antibody is immobilized to thereby cause the […]. […] Then, biotin-labeled anti-endothelin polyclonal antibody and peroxydase-labeled avidin are applied thereto for reaction. After washing the microplate, activity of bound peroxydase is assayed. Endothelin concentration in the sample is assayed based on the calibration curve drawn by using endothelin standard solutions having predetermined concentrations of endothelin.
(§3) The enzymes of the invention were tested for the effects of various inhibitors against the activity of converting big endothelin-1 to endothelin-1.
(§4) Each of the enzymes is incubated in 100 μl of a reaction solution (10 mM tris-hydrochloric acid-0.15M sodium chloride buffer; pH 7.0) containing various inhibitors at 37° C. for 30 minutes, and the residual enzymatic activity is measured in the above-described manner.

In experiment [2] the test system is endothelin converting enzyme IV. As to the kind of experiment: Effect of inhibitors on activity of converting big endothelin-1 to endothelin-1, enzyme IV. As to the method: as §1, §2, §3, §4
In experiment [3] the test system is endothelin converting enzyme I. The experiment is described as follows: Effect of inhibitors on activity of converting big endothelin-1 to endothelin-1, enzyme I. As to the method: as §1, §2, §3, §4
Experiment [4] concerns endothelin converting enzyme II. As to the kind of experiment: Effect of inhibitors on activity of converting big endothelin-1 to endothelin-1, enzyme II. As to the method: as §1, §2, §3, §4

In the case of `c1cnc2c(c1)ccc1cccnc12` [1,10-Phenanthroline], the “Relative Activity (%)” value worked out at 7% in experiment [1] (inhibitor 0.5 mM), 8% in experiment [2] (inhibitor 0.5 mM), 10% in experiment [3] (inhibitor 0.5 mM) and 5% in experiment [4] (inhibitor 0.5 mM).

Take `CC(C)CC(=O)N[C@H](C(=O)N[C@H](C(=O)N[C@@H](CC(C)C)[C@@H](O)CC(=O)N[C@@H](C)C(=O)N[C@@H](CC(C)C)[C@@H](O)CC(=O)O)C(C)C)C(C)C` [Pepstatin A] (Isovaleryl-VV[Sta]A[Sta]-OH): the “Relative Activity (%)” value was determined as 99% in experiment [1] (inhibitor 0.01 mM), 97% in experiment [2] (inhibitor 0.01 mM), 99% in experiment [3] (inhibitor 0.01 mM) and 100% in experiment [4] (inhibitor 0.01 mM).

In the case of `CC(C)C[C@H](NP(=O)(O)O[C@@H]1O[C@@H](C)[C@H](O)[C@@H](O)[C@H]1O)C(=O)N[C@@H](Cc1c[nH]c2ccccc12)C(=O)O` [Phosphoramidon], the “Relative Activity (%)” value amounted to 1% in experiment [1] (inhibitor 0.1 mM), 3% in experiment [2] (inhibitor 0.1 mM), 1% in experiment [3] (inhibitor 0.1 mM) and 2% in experiment [4] (inhibitor 0.1 mM).
